According to US20220331414A1, “LIPID COMPOUNDS AND LIPID NANOPARTICLE COMPOSITIONS” (Suzhou Abogen Biosciences Co., Ltd., priority 2020, published 2022):

What was measured:
[1] = Encapsulation efficiency of lipid nanoparticles (Quant-it Ribogreen RNA assay); format: physicochemical; settings: LNP of cationic lipid/DSPC/cholesterol/PEG-lipid 50:10:38.5:1.5 with mRNA
Protocol: (§1) Briefly, a cationic lipid provided herein, DSPC, cholesterol, and PEG-lipid were solubilized in ethanol at a molar ratio of 50:10:38.5:1.5, and mRNA were diluted in 10 to 50 mM citrate buffer, pH=4. The LNPs were prepared at a total lipid to mRNA weight ratio of approximately 10:1 to 30:1 by mixing the ethanolic lipid solution with the aqueous mRNA solution at a volume ratio of 1:3 using a microfluidic apparatus, total flow rate ranging from 9-30 mL/min. Ethanol were thereby removed and replaced by DPBS using dialysis. Finally, the lipid nanoparticles were filtered through a 0.2 μm sterile filter.
(§2) Lipid nanoparticle size were determined by dynamic light scattering using a Malvern Zetasizer Nano ZS (Malvern UK) using a 173° backscatter detection mode. The encapsulation efficiency of lipid nanoparticles were determined using a Quant-it Ribogreen RNA quantification assay kit (Thermo Fisher Scientific, UK) according to the manufacturer's instructions.

[2] = Lipid nanoparticle size and polydispersity by dynamic light scattering; format: physicochemical; settings: LNP of cationic lipid/DSPC/cholesterol/PEG-lipid 50:10:38.5:1.5 with mRNA
Protocol: as §1, §2

[3] = Apparent pKa of LNP formulations by TNS fluorescence assay; settings: LNP cationic lipid/DSPC/cholesterol/DMG-PEG 50/10/38.5/1.5 mol %, pH 3 to 9
Protocol: TNS was prepared as a 300 uM stock solution in distilled water. LNP formulations were diluted to 0.1 mg/ml total lipid in 3 mL of buffered solutions containing 50 mM sodium citrate, 50 mM sodium phosphate, 50 mM sodium borate, and 30 mM sodium chloride where the pH ranged from 3 to 9. An aliquot of the TNS solution was added to give a final concentration of 0.1 mg/ml and following vortex mixing fluorescence intensity was measured at room temperature in a Molecular Devices Spectramax iD3 spectrometer using excitation and mission wavelengths of 325 nm and 435 nm. A sigmoidal best fit analysis was applied to the fluorescence data and the pKa value was measured as the pH giving rise to half—maximal fluorescent intensity.

Encapsulation Efficiency [1] | polydispersity [2] | size (nm) [2] | Apparant Pka [3] | Compound
99.9% | 0.245 | 62.7 nm | 9.42 | CCCCCCCCCCCCCOP(=O)(NCCCN1CCCCC1)OCCCCCCCC(=O)OC(CCCCCCCC)CCCCCCCC (stereo not shown) [Compound 35]
98.3% | 0.196 | 76.16 nm | 8.08 | CCCCCCCCC(CCCCCCCC)OC(=O)CCCCCCCOP(=O)(NCCCN(C)C)OCCCCCCC (stereo not shown) [Compound 43]
96.9% | 0.162 | 66.97 nm | 6.381 | CCCCCCCCC(CCCCC)COP(=O)(NCCN1CCCC1)OCC(CCCCC)CCCCCCCC (stereo not shown) [Compound 74]
93.3% | 0.116 | 86.9 nm | 7.195 | CCCCCCCCC(CC)COP(=O)(NCCN(CC)CC)OCC(CC)CCCCCCCC (stereo not shown) [Compound 67]
99.6% | 0.122 | 80.83 nm | 7.77 | CCCCCCCCCOC(=O)CCCCCCCOP(=O)(NCCCN(C)C)OCCCCCCCC(=O)OC(CCCCCCCC)CCCCCCCC (stereo not shown) [Compound 40]
70.2% | 0.105 | 80.66 nm | 4.79 | CCCCCCCCC(CCCCCC)COP(=O)(NCCN(C)C)OCC(CCCCCC)CCCCCCCC (stereo not shown) [Compound 21]
58.6% | 0.118 | 90.85 nm | 4.385 | CCCCCCCCC(CCCCCC)C(C)OP(=O)(NCCN(CC)CC)OC(C)C(CCCCCC)CCCCCCCC (stereo not shown) [Compound 59]
91.4% | 0.101 | 70.54 nm | 7.003 | CCCCCCCCC(CCCC)COP(=O)(NCCN1CCCC1)OCC(CCCC)CCCCCCCC (stereo not shown) [Compound 73]
88.8% | 0.194 | 94.66 nm | 7.26 | CCCCCCCCCOC(=O)CCCCCOP(=O)(NCCN(C)C)OCCCCCC(=O)OCCCCCCCCC [Compound 5]
96.2% | 0.116 | 138.3 nm | 6.94 | CCCCCCCCCCCCCOP(=O)(NCCCN(C)C)OCCCCCCCCCCCCC [Compound 10]
93.8% | 0.045 | 66.05 nm | 6.303 | CCCCCCCCCCC(CCCCCCCCCC)COP(=O)(NCCN1CCCC1)OCC(CCCCCCCCCC)CCCCCCCCCC [Compound 87]
45.9% | 0.094 | 108.5 nm | 5.84 | CCCCCCCCC(CCCCCCCC)OC(=O)CCCCCCCOP(=O)(NCCN(C)C)OCCCCCCCC(=O)OC(CCCCCCCC)CCCCCCCC [Compound 38]
96.3% | 0.053 | 71.16 nm | 6.457 | CCCCCCCCCCC(CCCCCCCC)COP(=O)(NCCN1CCCC1)OCC(CCCCCCCC)CCCCCCCCCC (stereo not shown) [Compound 79]
55.0% | 0.179 | 85.33 nm | 3.726 | CCCCCCCCC(CCCCCC)COP(=O)(NCCN1CCC(F)(F)C1)OCC(CCCCCC)CCCCCCCC (stereo not shown) [Compound 60]

Compound | Encapsulation Efficiency [1] | polydispersity [2] | size (nm) [2] | Apparant Pka [3]
CCCCCCCCCOP(=O)(NCCCN(C)C)OCCCCCCCCC [Compound 4] | 73.2% | 0.055 | 72.06 nm | 8.26
CCCCCCCCCCCCCOP(=O)(OCCCCCCCCCCCCC)N1CCC(N2CCOCC2)CC1 [Compound 19] | 73.7% | 0.086 | 110.8 nm | 6.38
